Experimental data as given in ChEMBL document CHEMBL1201862, “PubChem BioAssay data set” (2004).
Where “and” joins values, the source holds several entries; their conditions need not be identical. Identical values can stand only once. Calls of active or inactive are those of the source.

How the values were obtained:
A-375 [1] = test: MITF: Counter assay: A375 proliferation Measured in Cell-Based System Using Plate Reader - 2084-03_Inhibitor_Dose_DryPowder_Activity. [Related pubchem assays (depositor defined):AID488944]; type: functional; conditions: Homo sapiens
A-375 [2] = test: A375 melanoma cell viability reduction, dose response, counter-screen for MITF modulator project, cherry-pick samples, set 2 (AID 540335); type: functional, cell-based; conditions: Homo sapiens
[3] = biological target: T1, Aryl hydrocarbon receptor (Homo sapiens, UniProt P35869); conditions: Potency;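 note: confirmatory quantitative high-throughput screen measuring activation of the AhR signaling pathway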
T1 sequence (P35869 whole entry): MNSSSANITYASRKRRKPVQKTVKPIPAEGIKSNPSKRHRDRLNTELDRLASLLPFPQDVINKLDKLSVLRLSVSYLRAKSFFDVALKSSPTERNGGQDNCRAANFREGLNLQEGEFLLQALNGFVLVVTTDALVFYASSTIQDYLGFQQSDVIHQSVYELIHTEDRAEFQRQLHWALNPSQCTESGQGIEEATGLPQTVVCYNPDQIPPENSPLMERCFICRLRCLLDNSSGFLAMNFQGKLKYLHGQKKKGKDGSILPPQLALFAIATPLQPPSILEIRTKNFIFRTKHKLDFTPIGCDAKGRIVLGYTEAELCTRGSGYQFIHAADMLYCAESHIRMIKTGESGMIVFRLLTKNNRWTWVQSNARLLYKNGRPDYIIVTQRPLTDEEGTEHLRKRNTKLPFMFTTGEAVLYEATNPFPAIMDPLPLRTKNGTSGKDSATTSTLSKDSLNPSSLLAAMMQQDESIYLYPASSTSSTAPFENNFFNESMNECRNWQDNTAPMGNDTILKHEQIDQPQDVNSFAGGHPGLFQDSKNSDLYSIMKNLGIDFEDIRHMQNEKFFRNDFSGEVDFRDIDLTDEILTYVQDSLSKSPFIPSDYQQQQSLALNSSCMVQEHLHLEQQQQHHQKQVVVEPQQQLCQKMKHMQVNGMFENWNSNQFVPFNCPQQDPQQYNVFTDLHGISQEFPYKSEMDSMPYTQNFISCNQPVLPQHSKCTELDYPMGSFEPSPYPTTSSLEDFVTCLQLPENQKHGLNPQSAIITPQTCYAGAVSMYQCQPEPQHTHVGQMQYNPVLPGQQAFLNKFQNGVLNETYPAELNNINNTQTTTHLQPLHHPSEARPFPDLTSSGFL

[4] = biological target: DNA dC->dU-editing enzyme APOBEC-3A (Homo sapiens, UniProt P31941); test: Dose Response confirmation of small molecule APOBEC3A DNA Deaminase Inhibitors via a fluorescence-based single-stranded DNA deaminase assay. [Related pubchem assays (depositor defined):AID493011, AID493024]; type: functional
DNA dC->dU-editing enzyme APOBEC-3A, sequence (P31941 whole entry): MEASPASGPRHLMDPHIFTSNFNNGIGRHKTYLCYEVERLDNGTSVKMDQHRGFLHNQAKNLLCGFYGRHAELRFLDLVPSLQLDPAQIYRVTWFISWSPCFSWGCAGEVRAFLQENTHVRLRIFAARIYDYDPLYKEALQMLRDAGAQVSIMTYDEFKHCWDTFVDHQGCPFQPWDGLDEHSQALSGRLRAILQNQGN

[5] = biological target: DNA dC->dU-editing enzyme APOBEC-3G (Homo sapiens, UniProt Q9HC16); type: functional;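 note: Dose-response counterscreen measuring inhibition of APOBEC3G DNA deaminase activity, run while confirming APOBEC3A inhibitors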
DNA dC->dU-editing enzyme APOBEC-3G, sequence (Q9HC16 whole entry, the tested form may be a part): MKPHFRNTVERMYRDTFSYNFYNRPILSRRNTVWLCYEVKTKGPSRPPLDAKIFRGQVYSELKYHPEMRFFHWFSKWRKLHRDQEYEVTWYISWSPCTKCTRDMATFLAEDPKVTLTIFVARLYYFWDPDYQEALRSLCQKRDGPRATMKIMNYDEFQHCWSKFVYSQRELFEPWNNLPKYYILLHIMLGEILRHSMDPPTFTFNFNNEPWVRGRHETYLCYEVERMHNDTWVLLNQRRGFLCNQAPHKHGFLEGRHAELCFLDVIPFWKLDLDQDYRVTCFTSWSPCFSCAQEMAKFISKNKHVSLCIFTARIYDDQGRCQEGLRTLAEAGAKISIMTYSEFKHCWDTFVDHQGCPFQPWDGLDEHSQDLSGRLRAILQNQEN

[6] = biological target: T2, Carboxy-terminal domain RNA polymerase II polypeptide A small phosphatase 1 (Homo sapiens, UniProt Q9GZU7); test: inhibitors of CTDSP1, concentration-response testing, biochemical assay, absorbance-based, actives from ultra-high-throughput screening (AID 540297); type: functional
T2 sequence (Q9GZU7 whole entry): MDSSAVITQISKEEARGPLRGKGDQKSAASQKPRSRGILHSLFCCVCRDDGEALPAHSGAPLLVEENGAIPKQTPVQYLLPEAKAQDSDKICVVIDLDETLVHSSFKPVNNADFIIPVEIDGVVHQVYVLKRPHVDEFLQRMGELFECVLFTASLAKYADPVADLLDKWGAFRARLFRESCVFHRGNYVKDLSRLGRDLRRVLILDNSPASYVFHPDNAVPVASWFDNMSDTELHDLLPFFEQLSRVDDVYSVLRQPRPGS

[7] = biological target: Ras and Rab interactor 1/Tyrosine-protein kinase ABL1 (Homo sapiens, UniProt P00519+Q13671); type: functional;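 note: biochemical TR-FRET dose-response test measuring inhibition of binding between Rin1 and Abl proteins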
Ras and Rab interactor 1/Tyrosine-protein kinase ABL1, sequence (P00519 whole entry): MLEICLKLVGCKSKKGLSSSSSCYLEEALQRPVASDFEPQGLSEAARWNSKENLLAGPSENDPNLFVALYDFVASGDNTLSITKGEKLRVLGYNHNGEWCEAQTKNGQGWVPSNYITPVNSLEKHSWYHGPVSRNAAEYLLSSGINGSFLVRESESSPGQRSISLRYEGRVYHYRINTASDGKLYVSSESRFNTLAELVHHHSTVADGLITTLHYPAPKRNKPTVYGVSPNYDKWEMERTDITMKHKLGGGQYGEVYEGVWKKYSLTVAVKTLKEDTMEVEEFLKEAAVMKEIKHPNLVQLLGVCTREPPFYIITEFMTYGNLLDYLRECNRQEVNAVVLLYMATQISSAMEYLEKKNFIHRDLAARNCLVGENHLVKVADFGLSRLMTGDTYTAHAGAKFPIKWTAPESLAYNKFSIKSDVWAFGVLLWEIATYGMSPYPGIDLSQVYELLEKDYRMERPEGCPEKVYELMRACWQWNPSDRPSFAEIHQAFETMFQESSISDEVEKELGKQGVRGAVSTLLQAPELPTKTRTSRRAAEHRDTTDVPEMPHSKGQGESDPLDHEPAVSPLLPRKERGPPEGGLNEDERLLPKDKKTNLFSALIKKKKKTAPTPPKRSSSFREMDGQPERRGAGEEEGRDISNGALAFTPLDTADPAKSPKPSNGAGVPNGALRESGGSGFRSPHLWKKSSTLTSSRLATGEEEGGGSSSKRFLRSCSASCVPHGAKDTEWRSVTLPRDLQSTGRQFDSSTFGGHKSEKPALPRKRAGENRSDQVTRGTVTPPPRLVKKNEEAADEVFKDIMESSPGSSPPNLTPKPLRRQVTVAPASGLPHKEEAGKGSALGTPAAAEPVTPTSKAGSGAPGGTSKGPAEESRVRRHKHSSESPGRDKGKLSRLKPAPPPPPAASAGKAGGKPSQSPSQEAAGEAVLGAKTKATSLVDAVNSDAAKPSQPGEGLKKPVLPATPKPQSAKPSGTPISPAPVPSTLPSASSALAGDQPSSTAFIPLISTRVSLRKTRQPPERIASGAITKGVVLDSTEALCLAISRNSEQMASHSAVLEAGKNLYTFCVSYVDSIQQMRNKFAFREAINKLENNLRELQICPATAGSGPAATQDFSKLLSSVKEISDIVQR
Ras and Rab interactor 1/Tyrosine-protein kinase ABL1, sequence (Q13671 whole entry): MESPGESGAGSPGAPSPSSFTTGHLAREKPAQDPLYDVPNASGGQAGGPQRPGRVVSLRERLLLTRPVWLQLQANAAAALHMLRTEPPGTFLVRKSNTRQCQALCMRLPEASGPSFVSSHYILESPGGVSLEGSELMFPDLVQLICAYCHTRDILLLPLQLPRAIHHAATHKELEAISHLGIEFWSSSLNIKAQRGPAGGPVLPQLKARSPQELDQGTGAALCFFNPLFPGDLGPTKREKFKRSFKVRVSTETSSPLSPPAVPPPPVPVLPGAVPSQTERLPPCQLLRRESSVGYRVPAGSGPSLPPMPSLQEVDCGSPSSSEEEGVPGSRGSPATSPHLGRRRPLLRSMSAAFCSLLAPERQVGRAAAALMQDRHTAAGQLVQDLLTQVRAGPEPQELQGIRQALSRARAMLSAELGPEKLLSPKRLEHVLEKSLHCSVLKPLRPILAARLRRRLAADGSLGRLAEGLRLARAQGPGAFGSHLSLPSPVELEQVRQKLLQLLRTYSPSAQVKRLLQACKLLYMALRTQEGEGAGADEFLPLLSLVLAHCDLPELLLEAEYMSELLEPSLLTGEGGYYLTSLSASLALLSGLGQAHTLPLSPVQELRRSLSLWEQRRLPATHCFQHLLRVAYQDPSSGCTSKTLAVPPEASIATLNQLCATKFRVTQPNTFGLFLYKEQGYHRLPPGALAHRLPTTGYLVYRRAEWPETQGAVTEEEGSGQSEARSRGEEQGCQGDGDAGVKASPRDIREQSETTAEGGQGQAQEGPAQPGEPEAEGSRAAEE

[8] = biological target: T3, Ubiquitin-conjugating enzyme E2 N (Homo sapiens, UniProt P61088); type: functional;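 note: Dose-response confirmation in a TR-FRET assay detecting UBC13-driven polyubiquitin chain formation, inhibition measured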
T3 sequence (P61088 whole entry): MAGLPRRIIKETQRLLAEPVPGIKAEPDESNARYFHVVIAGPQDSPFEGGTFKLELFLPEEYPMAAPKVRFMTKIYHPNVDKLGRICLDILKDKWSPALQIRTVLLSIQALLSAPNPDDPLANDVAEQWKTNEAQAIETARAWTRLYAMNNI

HEK293 = test: inhibitors of LMP1-driven NF-kB reporter, dose response, cell-based, HEK293, luciferase, cherry-pick (AID 588343); type: functional; conditions: Homo sapiens
[9] = NIH-3T3 fibroblast cytotoxicity, dose response, cytotoxicity control, cell-based, fluorescence, Alamar Blue, secondary assay (AID 2327); type: functional;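 note: NIH-3T3 mouse fibroblasts cultured with fluconazole at 8 µg/mL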
[10] = C. albicans growth with fluconazole, confirmation, fluorescence, retest (AID 2467); type: functional, cell-based
INS1 = test: beta cell apoptosis inhibitors, cytokine rescue, dose response, luminescence, retest (AID 449756); type: functional, cell-based; conditions: Rattus norvegicus;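 note: cell death triggered by IL-1 beta plus TNF-alpha plus IFN-gamma mixture; protective hits raise ATP signal compared with cytokine alone wells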
Protein Wnt-3a = Protein Wnt-3a (Mus musculus, UniProt P27467); test: Wnt3a-driven reporter signaling inhibition, dose response, selectivity assay for Gli-SUFU antagonist project, Wnt-LIGHT cells, luminescence (AID 651570); type: functional; conditions: read-out: IC50_Mean;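 note: Wnt-LIGHT reporter cells stimulated with conditioned medium from Wnt3a-producing cells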
Protein Wnt-3a, sequence (P27467 whole entry): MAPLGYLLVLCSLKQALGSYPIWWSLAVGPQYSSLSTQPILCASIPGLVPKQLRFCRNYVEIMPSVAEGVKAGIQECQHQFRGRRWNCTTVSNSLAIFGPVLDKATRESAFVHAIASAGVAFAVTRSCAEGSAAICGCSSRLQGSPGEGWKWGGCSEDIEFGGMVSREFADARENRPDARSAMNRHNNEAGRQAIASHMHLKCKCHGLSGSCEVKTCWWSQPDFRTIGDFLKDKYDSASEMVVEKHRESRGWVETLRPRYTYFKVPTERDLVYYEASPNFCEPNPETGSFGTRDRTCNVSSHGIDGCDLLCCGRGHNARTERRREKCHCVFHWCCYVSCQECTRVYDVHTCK

[11] = HEp-2 cell cytotoxicity, dose response, cytotoxicity control for RSV inhibitor project, HTS (AID 2410); type: functional; conditions: human respiratory syncytial virus
[12] = biological target: T4, Apoptotic protease-activating factor 1 (Homo sapiens, UniProt O14727); type: functional
T4 sequence (O14727 whole entry): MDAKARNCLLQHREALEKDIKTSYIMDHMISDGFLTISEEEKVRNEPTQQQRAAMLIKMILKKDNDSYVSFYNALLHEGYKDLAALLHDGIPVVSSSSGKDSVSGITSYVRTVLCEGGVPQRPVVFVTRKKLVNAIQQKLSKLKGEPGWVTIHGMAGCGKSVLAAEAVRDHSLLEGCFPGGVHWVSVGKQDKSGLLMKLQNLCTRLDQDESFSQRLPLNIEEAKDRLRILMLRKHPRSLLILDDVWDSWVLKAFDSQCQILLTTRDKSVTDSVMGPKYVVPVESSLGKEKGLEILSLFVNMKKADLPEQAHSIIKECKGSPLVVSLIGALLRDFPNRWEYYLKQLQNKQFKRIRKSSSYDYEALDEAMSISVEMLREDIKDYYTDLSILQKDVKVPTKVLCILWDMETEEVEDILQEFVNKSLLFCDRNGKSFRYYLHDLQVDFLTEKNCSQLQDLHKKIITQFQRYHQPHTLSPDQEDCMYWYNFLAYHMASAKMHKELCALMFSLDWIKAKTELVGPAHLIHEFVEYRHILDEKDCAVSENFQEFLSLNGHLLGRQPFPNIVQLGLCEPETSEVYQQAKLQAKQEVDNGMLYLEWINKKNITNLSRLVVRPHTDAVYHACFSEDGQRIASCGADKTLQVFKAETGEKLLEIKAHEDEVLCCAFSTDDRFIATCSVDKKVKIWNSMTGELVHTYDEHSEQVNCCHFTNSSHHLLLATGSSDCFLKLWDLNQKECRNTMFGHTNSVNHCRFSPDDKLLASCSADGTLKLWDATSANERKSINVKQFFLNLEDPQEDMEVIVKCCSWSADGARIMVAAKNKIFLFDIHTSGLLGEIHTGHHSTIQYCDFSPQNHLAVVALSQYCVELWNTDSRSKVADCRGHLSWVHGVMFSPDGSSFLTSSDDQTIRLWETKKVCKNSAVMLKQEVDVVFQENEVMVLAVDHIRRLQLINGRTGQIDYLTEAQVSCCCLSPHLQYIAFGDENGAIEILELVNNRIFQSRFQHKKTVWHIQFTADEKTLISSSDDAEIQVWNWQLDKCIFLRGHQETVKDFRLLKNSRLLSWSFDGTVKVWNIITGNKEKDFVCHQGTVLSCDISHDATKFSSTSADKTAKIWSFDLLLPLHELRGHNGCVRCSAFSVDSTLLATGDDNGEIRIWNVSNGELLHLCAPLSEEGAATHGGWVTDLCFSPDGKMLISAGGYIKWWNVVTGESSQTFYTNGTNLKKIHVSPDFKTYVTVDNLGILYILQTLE

[13] = biological target: T5, DNA repair and recombination protein RAD54-like (Homo sapiens, UniProt Q92698); test: inhibitors of human RAD54 branch migration, confirmation, biochemical, fluorescence, cherry-picked samples, dose series (AID 651657); type: functional
T5 sequence (Q92698 whole entry): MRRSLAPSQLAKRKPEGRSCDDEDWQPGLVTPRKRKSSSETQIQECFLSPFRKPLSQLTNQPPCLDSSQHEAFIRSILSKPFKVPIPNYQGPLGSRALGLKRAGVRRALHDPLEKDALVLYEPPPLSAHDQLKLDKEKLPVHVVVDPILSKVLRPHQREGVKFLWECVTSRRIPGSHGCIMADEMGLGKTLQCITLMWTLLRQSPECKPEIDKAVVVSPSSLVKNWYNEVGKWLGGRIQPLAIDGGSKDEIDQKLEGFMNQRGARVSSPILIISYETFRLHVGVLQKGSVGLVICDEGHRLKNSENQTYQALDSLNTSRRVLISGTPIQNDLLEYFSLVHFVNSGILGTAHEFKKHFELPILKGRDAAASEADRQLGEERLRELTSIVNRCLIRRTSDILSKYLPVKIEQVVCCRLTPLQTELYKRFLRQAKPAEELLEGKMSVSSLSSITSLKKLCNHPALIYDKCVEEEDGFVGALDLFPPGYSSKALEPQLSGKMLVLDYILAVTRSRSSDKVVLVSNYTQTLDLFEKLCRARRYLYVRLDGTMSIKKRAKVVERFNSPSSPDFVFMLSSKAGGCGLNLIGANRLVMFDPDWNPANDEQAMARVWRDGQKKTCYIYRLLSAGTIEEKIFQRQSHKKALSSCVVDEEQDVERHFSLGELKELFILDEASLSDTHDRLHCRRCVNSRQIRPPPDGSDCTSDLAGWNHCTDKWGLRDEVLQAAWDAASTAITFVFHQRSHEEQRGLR

P388/ADR = test: cells; type: functional; conditions: Mus musculus
SN12K1 = test: cells; type: functional; conditions: Homo sapiens
P388 = test: cells; type: functional; conditions: Mus musculus
[14] = miR-122 activators in hepatoma reporter cells, dose response, cell-based, Huh7 psiCHECK-miR122, Renilla luciferase, cherry-picked (AID 651956); type: functional;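 note: huh7 hepatoma cells stably carrying a psiCHECK-2 miR-122 sensor plasmid; renilla luciferase signal reporting endogenous miR-122 activity after 48 h compound exposure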
Cytochrome P450 3A4 = Cytochrome P450 3A4 (Homo sapiens, UniProt P08684); conditions: Potency;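 note: confirmatory qHTS run detecting inhibitors and substrates of CYP3A4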
Cytochrome P450 3A4, sequence (P08684 whole entry): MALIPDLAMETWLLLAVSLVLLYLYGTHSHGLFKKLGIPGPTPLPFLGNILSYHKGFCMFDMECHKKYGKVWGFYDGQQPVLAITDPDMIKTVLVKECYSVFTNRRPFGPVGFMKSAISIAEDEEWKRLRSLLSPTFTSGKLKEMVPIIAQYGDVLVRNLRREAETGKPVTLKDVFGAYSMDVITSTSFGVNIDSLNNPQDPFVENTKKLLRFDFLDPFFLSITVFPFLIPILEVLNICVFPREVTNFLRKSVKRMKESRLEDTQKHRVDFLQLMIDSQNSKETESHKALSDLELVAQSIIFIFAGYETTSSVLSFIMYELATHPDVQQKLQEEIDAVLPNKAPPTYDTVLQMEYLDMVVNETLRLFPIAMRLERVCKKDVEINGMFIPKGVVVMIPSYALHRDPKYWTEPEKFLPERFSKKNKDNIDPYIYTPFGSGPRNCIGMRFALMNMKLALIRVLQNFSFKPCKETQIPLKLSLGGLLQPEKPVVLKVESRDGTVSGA

## Clc1ccc(-c2noc(CN3CCOCC3)n2)cc1
A-375 [1]
  AC50: > 35 µM (active)
A-375 [2]
  AC50: > 35 µM (active)

## Cc1cccc2sc(N)nc12
[3]
  AC50: 56.2 µM (inconclusive)

## CCN(CC)P(c1n(C)cc[n+]1C)N(CC)CC
[4]
  IC50: 2.47 µM (active)
[5]
  IC50: 3.2 µM (active)
[6]
  IC50: 3.52 µM (active)

## O=C(CC1SCCNC1=O)Nc1ccc(F)c(Cl)c1 (stereo not given)
[7]
  IC50: 25.7 µM (inactive)

## COc1ccc(C(=O)Nn2c(SCC(=O)c3ccc(Cl)cc3)nc3ccccc3c2=O)cc1
[8]
  IC50: > 20 µM (inactive)
HEK293
  AC50: 8.36 µM (active)

## Cc1csc2ncnc(NCCc3ccccn3)c12
[9]
  EC50: > 160 µM (inactive)
[10]
  EC50: 1.92 µM (active)
INS1
  AC50: 4.39 µM (active)
Protein Wnt-3a
  IC50: 0.887 µM (active)

## CC(=O)c1ccc(N2CCN(S(=O)(=O)c3ccc4c5c3CC(=O)N5CC(C)S4)CC2)cc1 (stereo not given)
[11]
  CC50: 17 µM (active)
[12]
  IC50: 50.7 µM (active)

## O=C(CNC(=O)c1ccc(Br)cc1)c1ccccc1
A-375 [1]
  AC50: > 35 µM (active)
A-375 [2]
  AC50: > 35 µM (active)

## CCOC(=O)C[n+]1c2n(c3ccccc31)CC(O)CS2 (stereo not given)
[6]
  IC50: 6.53 µM (active)

## CCOC(=O)c1ccc(NC(=O)COc2ccccc2CNCCO)cc1
[7]
  IC50: 25.3 µM (inactive)

## COc1cc(C(=O)Nc2ccc(O)cc2C(=O)O)ccc1OC(C)=O
[7]
  IC50: 0.659 µM (active)

## Nc1c(C(=O)NCCN2CCOCC2)c2nc3ccccc3nc2n1-c1ccc2c(c1)OCO2
[13]
  AC50: 37.3 µM (active)

## COc1nc(NC2CCCCC2)nc(NC(C)(C)C)n1
A-375 [1]
  AC50: > 35 µM (active)
A-375 [2]
  AC50: > 35 µM (active)

## CCOC(=O)/C(=C\c1ccccc1)C(=O)CCN1CCOCC1
P388/ADR
  GI50: 1.13 µM (inactive)
SN12K1
  GI50: 5.53 µM (inactive)
P388
  GI50: 0.627 µM (active)

## O=C(/C=C\c1ccc(/C=C/C(=O)Nc2cccc(C3=NCCCN3)c2)cc1)Nc1cccc(C2=NCCCN2)c1
P388/ADR
  GI50: 79.3 µM (inactive)
SN12K1
  GI50: > 100 µM (inactive)
P388
  GI50: 0.303 µM (active)

## COC(=O)[C@]12CC=C3O[C@@H]4OC5(CCCCC5)O[C@@H]4[C@H]3C1C(=O)C=CC2=O (stereo not given in full)
P388/ADR
  GI50: 2.96 µM (inactive)
SN12K1
  GI50: 16 µM (inactive)
P388
  GI50: 2.81 µM (inactive)

## CN1C(=O)c2cc(NC(=O)Cc3ccccc3)ccc2OC[C@@H]2O[C@@H](CC(=O)NCc3ccc(Cl)cc3)CC[C@H]21
[14]
  AC50: 41.4 µM (active)

## COc1cc(C2c3cc4c(cc3[C@@H](Nc3ccc5c(c3)OCCO5)C3COC(=O)[C@H]23)OCO4)cc(OC)c1O (stereo not given in full)
P388/ADR
  GI50: 0.229 µM (active)
SN12K1
  GI50: 0.274 µM (active)
P388
  GI50: < 0.01 µM (active)

## Nc1ccc(-c2nc3c(ccc4ccccc43)[nH]2)cc1
[13]
  AC50: 92.4 µM (active)

## Nc1cc(Cl)c(N)c(Cl)c1
Cytochrome P450 3A4
  AC50: 20 µM (inconclusive)
[3]
  AC50: 31.6 µM (inconclusive) and 25.1 µM (inconclusive)

## Cc1ccc(N=C=O)cc1N=C=O [TOLUENE DIISOCYANATE]
[3]
  AC50: 50.1 µM (inconclusive)
